Measurements as given in the supplement of paper PMC10307832.

Assays:
Experiment in all cases: relative viability (nuclei count vs DMSO), 5 days (fraction); higher = more cells survive
OSI-027 + Lapatinib = compound: COc1cccc2cc(-c3nc([C@H]4CC[C@H](C(=O)O)CC4)n4ncnc(N)c34)[nH]c12 [OSI-027] + CS(=O)(=O)CCNCc1ccc(-c2ccc3ncnc(Nc4ccc(OCc5cccc(F)c5)c(Cl)c4)c3c2)o1 [Lapatinib] (partner 2 µM)
Summary of the method: (§1)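 Lung cancer cell lines in 1536-well plates got either a single drug or a fixed anchor-drug dose together with five library-drug doses (not always all listed) in √10 steps, by pin tool, on the day after seeding. Nuclei were counted after 5 days, and relative viability is the treated-to-vehicle ratio of nuclei counts. Values are medians of duplicate plates.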

Vemurafenib + Trametinib = compound: CCCS(=O)(=O)Nc1ccc(F)c(C(=O)c2c[nH]c3ncc(-c4ccc(Cl)cc4)cc23)c1F [Vemurafenib] + CC(=O)Nc1cccc(-n2c(=O)n(C3CC3)c(=O)c3c(Nc4ccc(I)cc4F)n(C)c(=O)c(C)c32)c1 [Trametinib] (partner 0.02 µM)
Summary of the method: as §1

Alpelisib + Pemetrexed = compound: Cc1nc(NC(=O)N2CCC[C@H]2C(N)=O)sc1-c1ccnc(C(C)(C)C(F)(F)F)c1 [Alpelisib] + Nc1nc2[nH]cc(CCc3ccc(C(=O)N[C@@H](CCC(=O)O)C(=O)O)cc3)c2c(=O)[nH]1 [Pemetrexed] (partner 0.2 µM)
Summary of the method: as §1

Vemurafenib + Pemetrexed = compound: CCCS(=O)(=O)Nc1ccc(F)c(C(=O)c2c[nH]c3ncc(-c4ccc(Cl)cc4)cc23)c1F [Vemurafenib] + Nc1nc2[nH]cc(CCc3ccc(C(=O)N[C@@H](CCC(=O)O)C(=O)O)cc3)c2c(=O)[nH]1 [Pemetrexed] (partner 0.2 µM)
Summary of the method: as §1

Row | Cell Line | relative viability (OSI-027 + Lapatinib; first compound 0.01 µM) | relative viability (OSI-027 + Lapatinib; first compound 0.03162 µM) | relative viability (OSI-027 + Lapatinib; first compound 0.1 µM) | relative viability (OSI-027 + Lapatinib; first compound 0.3162 µM) | relative viability (OSI-027 + Lapatinib; first compound 1 µM) | relative viability (Vemurafenib + Trametinib; first compound 0.03162 µM) | relative viability (Vemurafenib + Trametinib; first compound 0.1 µM) | relative viability (Vemurafenib + Trametinib; first compound 0.3162 µM) | relative viability (Vemurafenib + Trametinib; first compound 1 µM) | relative viability (Alpelisib + Pemetrexed; first compound 0.04 µM) | relative viability (Alpelisib + Pemetrexed; first compound 0.1265 µM) | relative viability (Alpelisib + Pemetrexed; first compound 0.4 µM) | relative viability (Alpelisib + Pemetrexed; first compound 1.265 µM) | relative viability (Alpelisib + Pemetrexed; first compound 4 µM) | relative viability (Vemurafenib + Pemetrexed; first compound 0.03162 µM) | relative viability (Vemurafenib + Pemetrexed; first compound 0.1 µM) | relative viability (Vemurafenib + Pemetrexed; first compound 0.3162 µM) | relative viability (Vemurafenib + Pemetrexed; first compound 1 µM)
1 | EPLC-272H | 1.12 | 0.965 | 0.699 | 0.664 | 0.55 | 0.282 | 0.323 | 0.338 | 0.331 | 0.394 | 0.363 | 0.355 | 0.276 | 0.238 | 0.319 | 0.336 | 0.396 | 0.328
2 | H3255 | 0.22 | 0.269 | 0.234 | 0.183 | 0.234 | 0.589 | – | 0.652 | 0.645 | 0.586 | 0.614 | 0.603 | 0.526 | 0.507 | 0.551 | – | 0.515 | 0.566
3 | HARA | 0.741 | 0.577 | 0.549 | 0.418 | 0.405 | 0.742 | 0.325 | 0.71 | 0.757 | 0.254 | 0.249 | 0.26 | 0.23 | 0.274 | 0.24 | 0.234 | 0.2 | 0.246
4 | HCC-15 | 0.872 | 0.849 | 0.819 | 0.763 | 0.529 | 0.373 | 0.363 | 0.43 | 0.429 | 0.228 | 0.218 | 0.211 | 0.21 | 0.211 | 0.227 | 0.226 | 0.209 | 0.222
5 | HCC-44 | 1.05 | 0.975 | 0.93 | 0.85 | 0.444 | 1.01 | 1 | 1.02 | 1.14 | 0.65 | 0.706 | 0.698 | 0.65 | 0.619 | 0.617 | 0.609 | 0.654 | 0.625
6 | HCC-78 | 0.6 | 0.77 | 0.472 | 0.787 | 0.518 | 0.783 | 0.609 | 1.06 | 0.838 | 0.854 | 0.941 | 0.951 | 0.854 | 0.887 | 0.925 | 0.922 | 0.932 | 0.921
7 | HCC-366 | 1.25 | 1.1 | 1.16 | 0.764 | 0.148 | 0.346 | 0.193 | – | 0.376 | 0.175 | 0.232 | 0.296 | 0.342 | 0.254 | 0.178 | 0.166 | – | 0.151
8 | HCC-827 | 0.151 | 0.173 | 0.205 | 0.185 | 0.176 | 0.52 | – | 0.73 | 0.585 | 0.277 | 0.285 | 0.278 | 0.225 | 0.143 | 0.273 | – | 0.287 | 0.238
9 | HOP-62 | 1.1 | 1.09 | 0.848 | 0.849 | 0.855 | 0.419 | 0.36 | 0.416 | 0.594 | 0.342 | 0.28 | 0.364 | 0.26 | 0.297 | 0.368 | 0.318 | 0.208 | 0.354
10 | LC-2-ad | 1.05 | 0.981 | 0.978 | 1.1 | 0.709 | 0.868 | 0.815 | 0.998 | 0.921 | 0.276 | 0.276 | 0.275 | 0.267 | 0.271 | 0.252 | 0.254 | 0.249 | 0.276
11 | LCLC-97TM1 | 1.31 | 1.18 | 0.598 | 0.376 | 0.222 | – | 0.184 | 0.201 | 0.268 | 0.177 | 0.17 | 0.183 | 0.174 | 0.127 | – | 0.163 | 0.185 | 0.149
12 | LK-2 | 0.861 | 0.789 | 0.609 | 0.385 | 0.268 | 0.889 | 0.693 | 1.12 | 0.607 | 0.247 | 0.252 | 0.213 | 0.209 | 0.199 | 0.247 | 0.274 | 0.26 | 0.304
13 | LOU-NH91 | 0.727 | 0.702 | 0.626 | 0.598 | 0.482 | 0.743 | 0.656 | 0.642 | 0.861 | 0.398 | 0.385 | 0.486 | 0.407 | 0.404 | 0.372 | 0.464 | 0.337 | 0.382
14 | LU99A | 0.834 | 0.921 | 0.789 | 0.309 | 0.218 | 0.521 | 0.563 | – | 0.664 | 0.187 | 0.188 | 0.193 | 0.154 | 0.159 | 0.229 | 0.196 | – | 0.199
15 | LXF-289 | 0.99 | 0.885 | 0.926 | 0.9 | 0.74 | 0.656 | 0.599 | 0.697 | 0.733 | 0.899 | 0.866 | 0.999 | 0.904 | 0.949 | 0.871 | 0.868 | 0.903 | 0.635
16 | NCI-H23 | 1.07 | 1.13 | 1.06 | 0.618 | 0.291 | 0.295 | 0.314 | 0.457 | 0.366 | 0.78 | 0.622 | 0.726 | 0.602 | 0.416 | 0.564 | 0.772 | 0.622 | 0.727
17 | NCI-H322M | 0.578 | 0.651 | 0.543 | 0.57 | 0.559 | 0.462 | – | 0.723 | 0.547 | 0.561 | 0.61 | 0.588 | 0.489 | 0.578 | 0.587 | – | 0.597 | 0.537
18 | NCI-H358 | 0.444 | 0.475 | 0.394 | 0.389 | 0.309 | 0.155 | 0.119 | 0.15 | 0.175 | 0.196 | 0.163 | 0.145 | 0.143 | 0.145 | 0.208 | 0.179 | 0.189 | 0.193
19 | NCI-H460 | 1.11 | 0.716 | 0.814 | 0.536 | 0.102 | 0.137 | 0.131 | 0.138 | 0.218 | 0.0625 | 0.0624 | 0.0552 | 0.0558 | 0.033 | 0.0604 | 0.058 | 0.065 | 0.0749
20 | NCI-H520 | 0.832 | 0.835 | 0.666 | 0.408 | 0.235 | 0.688 | 0.599 | 0.706 | 0.662 | 0.609 | 0.716 | 0.707 | 0.557 | 0.413 | 0.689 | 0.643 | 0.532 | 0.608
21 | NCI-H596 | 1.05 | 1.19 | 0.934 | 0.742 | 0.832 | 0.792 | 0.723 | 0.885 | 0.888 | 0.44 | 0.446 | 0.503 | 0.41 | 0.42 | 0.501 | 0.494 | 0.405 | 0.583
22 | NCI-H647 | 1.11 | 1.02 | 1.17 | 0.843 | 0.443 | 0.496 | 0.435 | 0.37 | 0.488 | 0.182 | 0.168 | 0.193 | 0.161 | 0.155 | 0.164 | 0.174 | 0.169 | 0.198
23 | NCI-H650 | 0.838 | 0.883 | 0.516 | 0.707 | 0.39 | 1.05 | 0.944 | 0.808 | 1.09 | 0.909 | 0.923 | 0.879 | 0.794 | 0.757 | 0.909 | 0.913 | 0.551 | 0.702
24 | NCI-H661 | 0.509 | 0.519 | 0.453 | 0.334 | 0.279 | 0.522 | 0.475 | 0.517 | 0.606 | 0.941 | 1.01 | 0.961 | 0.915 | 0.796 | 1.01 | 0.929 | 0.978 | 0.929
25 | NCI-H838 | 0.937 | 0.975 | 0.868 | 0.584 | 0.377 | 0.527 | 0.528 | 0.257 | 0.548 | 0.257 | 0.238 | 0.244 | 0.229 | 0.199 | 0.252 | 0.235 | 0.338 | 0.272
26 | NCI-H1355 | 1.13 | 0.957 | 0.873 | 0.561 | 0.363 | 0.454 | 0.35 | 0.464 | 0.523 | 1.03 | 1.03 | 1.01 | 0.934 | 0.926 | 1.03 | 0.961 | 1.02 | 1.04
27 | NCI-H1395 | 0.854 | 0.98 | 0.829 | 0.701 | 0.735 | 1.04 | 1.03 | 0.89 | 0.971 | 0.96 | 0.747 | 0.92 | 0.718 | 0.714 | 0.679 | 0.744 | 0.757 | 0.814
28 | NCI-H1437 | 0.807 | 0.756 | 0.807 | 0.69 | 0.312 | 0.474 | 0.538 | 0.626 | 0.629 | 0.3 | 0.31 | 0.274 | 0.252 | 0.213 | 0.327 | 0.294 | 0.312 | 0.32
29 | NCI-H1650 | 0.76 | 0.725 | 0.643 | 0.646 | 0.392 | 0.595 | 0.406 | 0.633 | 0.577 | 0.434 | 0.354 | 0.337 | 0.335 | 0.353 | 0.343 | 0.316 | 0.343 | 0.351
30 | NCI-H1651 | 0.842 | – | 0.728 | 0.725 | 0.371 | 0.805 | 0.741 | 0.773 | 0.827 | 0.543 | 0.525 | 0.594 | 0.541 | 0.538 | 0.555 | 0.626 | 0.508 | 0.579
